14 molecules from ChEMBL document CHEMBL1201862, “PubChem BioAssay data set” (2004) can be followed below.

Holding throughout (experiment): inhibition of tumour cell growth, NCI panel, 48 h
In test [1] the test system is 786-0.
Test [2] concerns CAKI-1.
Test [3] concerns CCRF-CEM.
In test [4] the test system is HCT-116.
Test [5] concerns HCT-15.
Test [6] has as its system MDA-MB-435.
The test system of test [7] is MDA-N.
In test [8] the test system is OVCAR-4.
In test [9] the test system is SF-268.
The test system of test [10] is SK-MEL-2.
Test [11] concerns SNB-19.
In test [12] the test system is T47D.
The subject of test [13] is UACC-257.
In test [14] the test system is UACC-62.
The test system of test [15] is M14.
Test [16] deals with Malme-3M.

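Growth conditions: 96-well plates. Treatment: test compound, 48 hours, 5 concentrations. Analysis: linear interpolation between bracketing concentrations; unreached endpoints set to highest concentration. GI50 is the concentration that inhibits growth by half.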 Active and inactive are the calls of the source. No stated cut-off is given here; in the data, active = GI50 up to about 1.1 µM and inactive = higher.

On to `CCOC(=O)/C=C(/C(=O)OCC)n1ccc(=O)n(Cc2cn(CCCCOC(C)=O)nn2)c1=O`, for which the GI50 in test [1] is > 100 µM (inactive); in test [2] it was 23.3 µM (inactive); in test [3] it was 16.2 µM (inactive); in test [4] it was > 100 µM (inactive); in test [5], 59.4 µM; in test [6], > 100 µM (inactive). For the same molecule, the GI50 in [7], in test [8], in test [9], in test [10], in test [11] and in [12] was > 100 µM (inactive) each time. The GI50 in test [13] and in test [14] was > 100 µM (inactive) each time.
Consider `NS(=O)(=O)c1nnc(NS(=O)(=O)c2ccccc2C(=O)O)s1`, for which the GI50 in [1] was > 100 µM (inactive); in [2], > 100 µM (inactive); in test [4], > 100 µM (inactive); in [5] it was > 100 µM; in test [15] it was > 100 µM (inactive); in [6], > 100 µM (inactive). For the same molecule, the GI50 in test [7], in [16], in test [8], in [9], in [10] and in test [11] was > 100 µM (inactive) in each case. The GI50 in test [12], in test [13] and in test [14] was > 100 µM (inactive) throughout.
On to `O=C(Cn1c2ccc(Br)cc2c2nc3ccccc3nc21)NC1CCCCC1`, for which the GI50 is > 100 µM (inactive) in test [1]; > 100 µM (inactive) in [2]; > 100 µM (inactive) in [4]; > 100 µM in [5]; > 100 µM (inactive) in test [15]; > 100 µM (inactive) in test [6]. In addition, the GI50 in test [7], in [16], in [8], in test [9], in [10] and in test [11] was > 100 µM (inactive) throughout. Moreover, the GI50 in test [12] is 60.4 µM (inactive); in [13], > 100 µM (inactive); in [14], > 100 µM (inactive).
In the case of `CCN(CC)CCn1ncc2c(N)ncnc21`, the GI50 is > 100 µM (inactive) in test [1]; > 100 µM (inactive) in test [2]; 34.7 µM (inactive) in [3]; > 100 µM (inactive) in test [4]; > 100 µM in test [5]; > 100 µM (inactive) in test [15]. Also, the GI50 in test [6], in [7], in test [16], in test [8], in [9] and in test [10] was > 100 µM (inactive) in each case. Further, the GI50 in test [11], in [12] and in test [14] was > 100 µM (inactive) throughout.
In the case of `CCOC(=O)Nc1nn[nH]c1Cl`, the GI50 in test [1] is > 100 µM (inactive); in [2] it was > 100 µM (inactive); in test [4] it was > 100 µM (inactive); in [5] it was > 100 µM; in [15] it was > 100 µM (inactive); in test [6], > 100 µM (inactive). For the same molecule, the GI50 in test [7], in [16], in [8], in test [9], in test [10] and in test [12] was > 100 µM (inactive) in each case. The GI50 in test [13] and in [14] was > 100 µM (inactive) throughout.
In the case of `C=C(C)CCN(C(=O)OC(C)(C)C)c1cc(C(C)C)co1`, the GI50 is > 100 µM (inactive) in [1]; > 100 µM (inactive) in [2]; 25.6 µM (inactive) in test [3]; 47.9 µM (inactive) in test [4]; > 100 µM in [5]; > 100 µM (inactive) in [15]. Moreover, the GI50 is 96.2 µM (inactive) in [6]; 95.7 µM (inactive) in test [7]; 59.2 µM (inactive) in test [8]; 0.344 µM (active) in test [9]; 28.5 µM (inactive) in test [10]; > 100 µM (inactive) in test [11]. Further, the GI50 in test [12] is 24.8 µM (inactive); in test [13], 34 µM (inactive); in [14] it was 86.9 µM (inactive).
For the molecule `COC(=O)c1c(O)ccc2c1c1c(n2Cc2ccccc2OC)C(=O)c2ccccc2C1=O`, the GI50 in test [1] is 11.4 µM (inactive); in test [2], 15.8 µM (inactive); in test [3] it was 3.13 µM (inactive); in test [4], 5.46 µM (inactive); in test [5] it was 5.16 µM; in [15], 8.45 µM (inactive). Also, the GI50 in test [6] is 10.3 µM (inactive); in [7], 13.3 µM (inactive); in test [16], 21 µM (inactive); in test [8] it was 11.7 µM (inactive); in test [9] it was 11.6 µM (inactive); in test [10], 13.9 µM (inactive). The GI50 in test [11] was 27.2 µM (inactive); in [12], 2.36 µM (inactive); in [13], 22.9 µM (inactive).
As for `Clc1nc(NCCc2ccccc2)c2ncn(-c3ccccc3)c2n1`, the GI50 in test [1] was 16.9 µM (inactive); in test [2], 7.83 µM (inactive); in test [4], 22 µM (inactive); in test [5], 25.5 µM; in test [15], 21.5 µM (inactive); in test [6] it was 16.3 µM (inactive). In addition, the GI50 was 18.5 µM (inactive) in test [7]; 21.1 µM (inactive) in test [16]; 14.1 µM (inactive) in [8]; 36.5 µM (inactive) in test [9]; 1.83 µM (inactive) in test [10]; 37 µM (inactive) in test [11]. In addition, the GI50 was 23.4 µM (inactive) in test [12], 15.8 µM (inactive) in test [13] and 20.8 µM (inactive) in test [14].
For `CCN(CC)CCCC(C)NC(=O)c1cc(-c2nccn2C)nc2ccc(C)cc12` (stereo unspecified), the GI50 was > 100 µM (inactive) in test [1]; > 100 µM (inactive) in test [2]; > 100 µM (inactive) in [4]; > 100 µM in test [5]; > 100 µM (inactive) in [15]; > 100 µM (inactive) in test [6]. The GI50 in test [7] is > 100 µM (inactive); in test [16], > 100 µM (inactive); in [8], 67.5 µM (inactive); in test [9], > 100 µM (inactive); in [10], > 100 µM (inactive); in [11], > 100 µM (inactive). The GI50 in test [12], in test [13] and in test [14] was > 100 µM (inactive) throughout.
With `CC1=C(C(=O)OC(C)(C)C)C(c2ccc([N+](=O)[O-])cc2)C(C(=O)OC(C)(C)C)=C(C)N1`, the GI50 in test [1] was 22.1 µM (inactive); in [2], 28.9 µM (inactive); in test [3] it was 0.187 µM (active); in [4], 20.5 µM (inactive); in [5], 36.5 µM; in test [15] it was 23.9 µM (inactive). Also, the GI50 in test [6] is 27.9 µM (inactive); in test [7], 25.5 µM (inactive); in test [8], 20.7 µM (inactive); in [9], 21.7 µM (inactive); in [10], 28.6 µM (inactive); in test [11] it was 34.4 µM (inactive). In addition, the figures for the GI50 in test [12], in test [13] and in test [14] were 14.7 µM (inactive), 18.8 µM (inactive) and 16.6 µM (inactive), respectively.
For the molecule `CN(C)c1ccc(C(=NNC(=O)c2cc3ccccc3[nH]2)c2ccc(N(C)C)cc2)cc1`, the GI50 is 1.53 µM (inactive) in test [1]; 0.971 µM (active) in test [2]; 0.326 µM (active) in test [3]; 0.422 µM (active) in test [4]; 0.156 µM in test [5]; 0.185 µM (active) in [15]. In addition, the GI50 in test [6] is 0.024 µM (active); in [7] it was 0.0388 µM (active); in test [8], 2.73 µM (inactive); in test [9], 0.433 µM (active); in test [10] it was 0.171 µM (active); in test [11] it was 0.625 µM (active). Besides, the GI50 in test [12] was > 23.8 µM (inactive); in test [13] it was 4.04 µM (inactive); in test [14], 0.409 µM (active).
`Cc1c2cnccc2nc2[nH]c3ccncc3c12`: the GI50 is 3.24 µM (inactive) in test [1]; 2.98 µM (inactive) in [2]; 5.75 µM (inactive) in test [3]; 3.98 µM in test [5]; 4.5 µM (inactive) in test [15]; 6.46 µM (inactive) in test [6]. The GI50 was 10.6 µM (inactive) in [7]; 3.33 µM (inactive) in test [16]; 11.7 µM (inactive) in [8]; 2.47 µM (inactive) in [9]; 11.4 µM (inactive) in test [10]; 13.7 µM (inactive) in test [11]. Moreover, the GI50 in test [12] was 12.4 µM (inactive); in test [13], 20.1 µM (inactive); in [14] it was 7 µM (inactive).
Take `N#Cc1nc(CN2C(=O)c3ccccc3C2=O)oc1N`: the GI50 was > 100 µM (inactive) in [1]; > 100 µM (inactive) in test [2]; > 100 µM (inactive) in test [3]; > 100 µM (inactive) in [4]; > 100 µM in test [5]; > 100 µM (inactive) in test [15]. The GI50 in test [6], in [7], in [16], in test [8], in test [9] and in test [10] was > 100 µM (inactive) each time. In addition, the GI50 in test [12] and in [13] was > 100 µM (inactive) each time.
For the molecule `CC(CCCC1SCC2NC(=O)NC21)C(=O)O` (stereo unspecified), the GI50 in test [1] was > 100 µM (inactive); in test [2] it was > 100 µM (inactive); in [4], > 100 µM (inactive); in [5] it was > 100 µM; in test [15], > 100 µM (inactive); in [6], > 100 µM (inactive). In addition, the GI50 in test [7], in [16], in test [8], in test [9], in test [10] and in [11] was > 100 µM (inactive) each time. In addition, the GI50 in [12] and in test [14] was > 100 µM (inactive) in each case.
